The target in one series is PI3KD (Homo sapiens, UniProt O00329). Briefly: Preliminary safety test on human PI3KD kinase. The series is classed as biochemical.
Another series has as its target T1, WT PfPKG (Plasmodium falciparum, UniProt Q8I719).
T1 construct: recombinant full length wild type (WT) PfPKG; His6 (N); host or cells: E. coli BL21
On the set-up: species or system P. falciparum. The source says:
A scoring system was developed to further prioritize interesting compounds. […] Three points were given to compounds that inhibit HuPKGIα at least 3 orders of magnitude less than WT PfPKG. […] We also considered how well the compounds bind to the target by taking into account two physicochemical properties: ligand efficiency (LE, 1.37 x pIC50/number heavy atoms) is a characterization of a compound’s efficiency on a per-heavy-atom basis[51] and lipophilic ligand efficiency (LLE, pIC50 – clogP) is a parameter used in drug design which links potency and lipophilicity in an attempt to estimate drug-likeness[52]. The ClogP coefficient measures lipophilicity. Values of LE ≥ 0.3 and LLE ≥ 5 are typically accepted as good starting points for optimizations efforts.

A further series has as its target T2, TQ PfPKG (PfPKG_T618Q) (Plasmodium falciparum, UniProt Q8I719, T618Q).
T2 construct: His6 (N); host or cells: E. coli BL21
Briefly: Kinase Glo enzymatic assay, gatekeeper mutant TQ PfPKG. The series is classed as biochemical, P. falciparum. As to the method: Taking advantage of the availability of more than 3,000 thiazole derivatives among the GSK compound collection, cluster 3 was thoroughly investigated for potent and selective inhibitors of WT PfPKG. […] We explored the binding mode by also testing compounds on the gatekeeper mutant enzyme TQ PfPKG. […] These two time points were chosen to give an indication of the speed of kill of the compounds. […] A preliminary safety test was performed on human AuroraB and LCK kinases which often underpin toxicity issues. […] Further assays for compound characterization included determination of solubility and cytotoxicity (HepG2 inhibition). Thiazoles have been previously identified as human BRaf inhibitors that are used to treat melanoma.
Protein production was outsourced to the Division of Signal Transduction Therapy, University of Dundee. Briefly, the pTRChis expression vectors (Invitrogen) containing an N-terminally His6-tagged PfPKG wildtype and T618Q were used to transform BL21 cells (protocol adapted from[23]). The cells were grown at 37 °C until the OD600 was 0.4–0.6 then the temperature was reduced to 15 °C and the cells were induced with 250 µM IPTG and grown for a further 16–18 hours before harvesting. The His6-PfPKG was purified on Cobalt agarose followed by gel filtration and the protein was dialysed into 25 mM Hepes pH 7.5, 0.1 mM EGTA, 150 mM NaCl, 50% glycerol and 2 mM DTT.
Initial optimization of the PKG assay was performed manually in 384-well plates and analysed with GraFit 7. The buffer for all assays was 25 mM HEPES pH 7.3 (GIBCO), 10 mM MgCl2 (Sigma), 2 mM DTT (Sigma), 0.01 mM cGMP (Sigma), 0.1 mg/ml BSA (Ambion). Enzymatic activity was tested using a luminescence-based kit (Promega KinaseGlo). Addition of the first reagent depletes the unused ATP and addition of the second reagent converts ADP (product of the kinase reaction) to ATP, which is then measured through a luciferin/luciferase reaction. The amount of luminescence is directly proportional to ATP turnover by the kinase. The kit was chosen because it can be miniaturized to small volumes (i.e. 4 µl) in 1536-well plates, for use in HTS.
We used PKA peptide substrate (SCP0212, Sigma-Aldrich) for WT and TQ PfPKG, dissolved in milliQ water at a final concentration of 5 mM, and Long S6 peptide substrate (produced at the University of Dundee, sequence […]) for HuPKGIα, dissolved in water at a final concentration of 30 mM.
We calculated the Michaelis-Menten (Km) constant for ATP and peptide substrate (PKA or Long S6) for all enzymes using GraphPad Prism (Supplementary Figs 2 and 3 and Supplementary Table 3). In order to identify different types of PKG inhibitors, including ATP competitive or non-competitive inhibitors, as well as inhibitors that bind to the peptide substrate pocket, we performed all assays using ATP and peptide substrate at a concentration equal to the Km. We also determined enzyme activity by calculating ATP turnover (Kcat) over the Km (Supplementary Table 3). The Kcat was calculated as (Vmax*slope)/[E] where Vmax is the maximum velocity and [E] is the concentration of the enzyme.
The plates containing the compounds were prepared at GSK in Upper Providence or Stevenage. Compounds were tested at a single final concentration of 10 µM or in a dose response with a range of concentrations starting from 100 μM to 1.6 nM (1 in 3 serial dilutions). Compounds were dispensed in the plates at the required concentration in a 40 nl volume. All plates (1536-well white Greiner) contained 40 nl of DMSO in lanes 11 and 12 (control 1, 100% enzyme activity) and were empty in lanes 35 and 36 (control 2, 0% enzyme activity). The plates were removed from −20 °C 1 hour before starting the assay. Using a Multidrop Combi dispenser (Thermo Scientific), 2 µl of the buffer containing ATP and the substrate were added to all wells then 2 µl of buffer only were added to column 35 and 36. […]
A general note: Kinase-Glo measures the ATP left after a reaction by luminescence.

Series [1] is described as follows: AM_Perm (artificial membrane permeability). The series is classed as in vitro ADME.
Series [2] is described as follows: ChromlogD (lipophilicity).
Another series deals with AuroraB (Homo sapiens, UniProt Q96GD4). Briefly: Preliminary safety test on human AuroraB kinase. Type of series: biochemical. On the procedure:
We explored the binding mode by also testing compounds on the gatekeeper mutant enzyme TQ PfPKG. […] A preliminary safety test was performed on human AuroraB and LCK kinases which often underpin toxicity issues. […] Further assays for compound characterization included determination of solubility and cytotoxicity (HepG2 inhibition).

The nature of another series: PFI. The series is classed as physicochemical. On the procedure: Dose response assays were performed in duplicate on WT PfPKG, HuPKGIα and a mock assay performed in the absence of enzyme (the counterscreen). Comparison of the PfPKG and HuPKGIα IC50 values gave information on selectivity and the counterscreen identified luminescent false positive compounds (see Materials and Methods). Cytotoxicity assays were also performed using a human hepatoma cell line (HepG2)[30]. […] This set of compounds was clustered by similarity using a complete-linkage algorithm and a threshold of 0.55[31]. A total of 79 clusters and 54 singletons were obtained.

By IC50 is commonly meant the midpoint of a concentration-inhibition curve. Lower therefore signals inhibition by little substance. One may read the chromatographic logD as lipophilicity estimated from chromatographic retention.

T1 sequence (Q8I719 whole entry): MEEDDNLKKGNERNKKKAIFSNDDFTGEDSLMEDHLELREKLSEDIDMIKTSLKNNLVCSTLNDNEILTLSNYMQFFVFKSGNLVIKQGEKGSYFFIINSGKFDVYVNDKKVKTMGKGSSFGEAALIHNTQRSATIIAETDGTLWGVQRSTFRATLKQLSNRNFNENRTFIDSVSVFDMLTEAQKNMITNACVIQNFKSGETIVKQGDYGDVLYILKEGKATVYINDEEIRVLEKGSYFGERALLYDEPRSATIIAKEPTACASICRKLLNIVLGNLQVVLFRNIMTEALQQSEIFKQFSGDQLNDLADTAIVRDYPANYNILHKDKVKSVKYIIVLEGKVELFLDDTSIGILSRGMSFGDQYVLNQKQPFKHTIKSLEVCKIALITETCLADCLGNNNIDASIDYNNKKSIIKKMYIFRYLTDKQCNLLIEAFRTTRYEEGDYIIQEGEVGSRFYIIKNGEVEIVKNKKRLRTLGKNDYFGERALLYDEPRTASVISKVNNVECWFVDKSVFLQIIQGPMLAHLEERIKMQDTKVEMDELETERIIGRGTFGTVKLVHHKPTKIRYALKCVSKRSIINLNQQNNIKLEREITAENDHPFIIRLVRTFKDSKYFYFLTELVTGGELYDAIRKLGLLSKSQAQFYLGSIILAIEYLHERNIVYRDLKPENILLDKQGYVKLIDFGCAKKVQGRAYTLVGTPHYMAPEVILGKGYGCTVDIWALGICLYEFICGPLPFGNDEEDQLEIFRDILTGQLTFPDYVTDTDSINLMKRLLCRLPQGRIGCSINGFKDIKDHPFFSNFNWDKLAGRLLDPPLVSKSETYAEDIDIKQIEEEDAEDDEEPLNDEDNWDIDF
T2 sequence (Q8I719 whole entry T618Q): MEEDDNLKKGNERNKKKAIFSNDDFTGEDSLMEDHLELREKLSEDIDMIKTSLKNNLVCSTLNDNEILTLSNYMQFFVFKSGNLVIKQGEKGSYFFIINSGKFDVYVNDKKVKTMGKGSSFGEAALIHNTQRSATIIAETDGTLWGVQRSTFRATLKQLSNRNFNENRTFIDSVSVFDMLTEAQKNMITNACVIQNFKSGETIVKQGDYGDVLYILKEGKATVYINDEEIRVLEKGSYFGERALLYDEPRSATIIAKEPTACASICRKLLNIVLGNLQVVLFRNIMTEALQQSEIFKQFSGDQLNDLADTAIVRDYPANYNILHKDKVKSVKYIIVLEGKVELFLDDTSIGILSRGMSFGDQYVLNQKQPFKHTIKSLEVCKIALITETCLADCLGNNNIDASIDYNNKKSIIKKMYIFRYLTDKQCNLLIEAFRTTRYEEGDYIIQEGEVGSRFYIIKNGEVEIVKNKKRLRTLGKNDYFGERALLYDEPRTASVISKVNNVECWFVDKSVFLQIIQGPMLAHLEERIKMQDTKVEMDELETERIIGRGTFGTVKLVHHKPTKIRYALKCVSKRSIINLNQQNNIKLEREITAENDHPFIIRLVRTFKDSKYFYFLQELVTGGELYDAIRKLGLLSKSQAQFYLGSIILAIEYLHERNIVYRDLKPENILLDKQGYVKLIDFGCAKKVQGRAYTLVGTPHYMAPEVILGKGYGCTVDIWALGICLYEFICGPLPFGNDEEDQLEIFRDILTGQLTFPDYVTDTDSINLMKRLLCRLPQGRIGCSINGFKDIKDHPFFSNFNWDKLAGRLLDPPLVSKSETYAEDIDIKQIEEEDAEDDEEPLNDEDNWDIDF
PI3KD, sequence (O00329 whole entry): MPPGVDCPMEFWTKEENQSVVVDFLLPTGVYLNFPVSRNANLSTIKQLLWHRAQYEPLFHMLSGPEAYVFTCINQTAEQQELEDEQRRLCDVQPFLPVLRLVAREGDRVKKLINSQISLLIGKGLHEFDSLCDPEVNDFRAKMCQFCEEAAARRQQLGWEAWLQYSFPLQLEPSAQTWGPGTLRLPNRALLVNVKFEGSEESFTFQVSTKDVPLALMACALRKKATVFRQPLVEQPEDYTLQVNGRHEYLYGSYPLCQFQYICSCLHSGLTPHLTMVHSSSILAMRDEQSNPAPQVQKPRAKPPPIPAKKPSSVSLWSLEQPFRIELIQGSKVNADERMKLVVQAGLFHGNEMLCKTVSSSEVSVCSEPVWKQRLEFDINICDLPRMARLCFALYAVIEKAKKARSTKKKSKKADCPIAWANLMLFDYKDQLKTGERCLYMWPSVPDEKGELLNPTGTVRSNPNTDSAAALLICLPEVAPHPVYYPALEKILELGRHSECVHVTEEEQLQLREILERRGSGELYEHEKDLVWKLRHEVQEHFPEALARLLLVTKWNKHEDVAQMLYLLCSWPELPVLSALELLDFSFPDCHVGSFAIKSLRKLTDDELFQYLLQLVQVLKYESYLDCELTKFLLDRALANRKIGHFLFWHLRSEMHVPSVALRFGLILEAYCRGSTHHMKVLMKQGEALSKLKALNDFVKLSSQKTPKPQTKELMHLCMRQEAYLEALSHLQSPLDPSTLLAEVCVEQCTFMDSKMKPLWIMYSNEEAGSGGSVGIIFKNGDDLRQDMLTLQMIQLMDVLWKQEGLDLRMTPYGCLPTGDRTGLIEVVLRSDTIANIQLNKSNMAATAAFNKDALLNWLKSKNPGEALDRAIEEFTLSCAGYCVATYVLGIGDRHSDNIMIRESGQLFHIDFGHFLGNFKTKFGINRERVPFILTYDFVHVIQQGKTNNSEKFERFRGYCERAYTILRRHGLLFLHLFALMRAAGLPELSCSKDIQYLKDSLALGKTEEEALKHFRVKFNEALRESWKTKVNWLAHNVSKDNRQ
PI3KD, sequence (P27986 whole entry partner): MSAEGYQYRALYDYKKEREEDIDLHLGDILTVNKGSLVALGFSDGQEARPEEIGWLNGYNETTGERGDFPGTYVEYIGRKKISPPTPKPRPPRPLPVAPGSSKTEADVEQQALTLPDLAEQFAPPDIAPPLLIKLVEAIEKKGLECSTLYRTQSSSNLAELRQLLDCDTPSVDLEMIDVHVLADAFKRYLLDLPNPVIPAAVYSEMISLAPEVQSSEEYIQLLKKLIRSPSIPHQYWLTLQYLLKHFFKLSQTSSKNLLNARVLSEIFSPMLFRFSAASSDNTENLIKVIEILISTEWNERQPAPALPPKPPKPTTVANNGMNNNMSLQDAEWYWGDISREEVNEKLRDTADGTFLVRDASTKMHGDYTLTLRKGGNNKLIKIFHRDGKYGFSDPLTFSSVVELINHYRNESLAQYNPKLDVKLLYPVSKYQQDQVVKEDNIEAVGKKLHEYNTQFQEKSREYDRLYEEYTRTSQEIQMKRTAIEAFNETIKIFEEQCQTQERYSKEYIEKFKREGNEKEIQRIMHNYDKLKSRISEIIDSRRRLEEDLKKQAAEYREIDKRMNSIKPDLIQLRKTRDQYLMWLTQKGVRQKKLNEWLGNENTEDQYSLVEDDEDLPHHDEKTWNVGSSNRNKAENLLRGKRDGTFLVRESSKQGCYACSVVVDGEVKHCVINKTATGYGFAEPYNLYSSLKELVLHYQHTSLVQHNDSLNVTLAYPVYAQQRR
AuroraB, sequence (Q96GD4 whole entry): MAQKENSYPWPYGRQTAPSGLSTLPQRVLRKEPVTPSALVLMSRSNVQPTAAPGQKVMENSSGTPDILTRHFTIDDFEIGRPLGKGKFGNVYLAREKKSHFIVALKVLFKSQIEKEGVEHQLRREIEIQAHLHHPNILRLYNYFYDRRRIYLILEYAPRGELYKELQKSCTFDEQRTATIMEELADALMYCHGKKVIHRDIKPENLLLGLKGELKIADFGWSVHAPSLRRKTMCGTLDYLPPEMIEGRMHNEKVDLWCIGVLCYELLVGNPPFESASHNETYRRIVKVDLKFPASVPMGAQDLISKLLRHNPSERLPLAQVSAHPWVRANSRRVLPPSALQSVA

Turning to `Nc1nc(Nc2cccc3cnccc23)nn1C(=O)C1CCCCC1` [Compound 16], the IC50 was over 50.1 µM on PI3KD, 1.8 µM against TQ PfPKG (PfPKG_T618Q) and 4 µM at AuroraB. On WT PfPKG (ligand efficiency), this compound yielded an LE of 0.4. In addition, at WT PfPKG (lipophilic ligand efficiency), the LLE came to 3.6. This compound also came in with an AM Perm in series [1] of 339 nm/s. Besides, in series [2], the chromatographic logD stood at 4.6. In “PFI”, this compound displayed a PFI of 7.6.

(Values after article PMC6504873, “High-throughput screening of the Plasmodium falciparum cGMP-dependent protein kinase identified a thiazole scaffold which kills erythrocytic and sexual stage parasites” (Scientific Reports, 2019).)
